How the values were obtained:
[1] = target: albumin (Homo sapiens, UniProt P02768); test: Competitive displacement of indoxyl sulfate by bilirubin in model uremic plasma; type: binding; conditions: uremic plasma (BUN about 55 mg/dL, albumin 3.82 g/dL) with 2 mMolar Bil-DT, 12 hours at 37° C.; control without Bil-DT 0.65 μg/ml
Experimental: Two samples of uremic plasma (blood urea nitrogen (BUN) of about 55 mg/dL, albumin concentration of 3.82 g/dL) including indoxyl sulfate were incubated for 12 hours at 37° C. One sample also included 2 mMolar bilirubin ditauride (Bil-DT).

[2] = normal adults; cited from earlier work

Chain of albumin (P02768 25-609): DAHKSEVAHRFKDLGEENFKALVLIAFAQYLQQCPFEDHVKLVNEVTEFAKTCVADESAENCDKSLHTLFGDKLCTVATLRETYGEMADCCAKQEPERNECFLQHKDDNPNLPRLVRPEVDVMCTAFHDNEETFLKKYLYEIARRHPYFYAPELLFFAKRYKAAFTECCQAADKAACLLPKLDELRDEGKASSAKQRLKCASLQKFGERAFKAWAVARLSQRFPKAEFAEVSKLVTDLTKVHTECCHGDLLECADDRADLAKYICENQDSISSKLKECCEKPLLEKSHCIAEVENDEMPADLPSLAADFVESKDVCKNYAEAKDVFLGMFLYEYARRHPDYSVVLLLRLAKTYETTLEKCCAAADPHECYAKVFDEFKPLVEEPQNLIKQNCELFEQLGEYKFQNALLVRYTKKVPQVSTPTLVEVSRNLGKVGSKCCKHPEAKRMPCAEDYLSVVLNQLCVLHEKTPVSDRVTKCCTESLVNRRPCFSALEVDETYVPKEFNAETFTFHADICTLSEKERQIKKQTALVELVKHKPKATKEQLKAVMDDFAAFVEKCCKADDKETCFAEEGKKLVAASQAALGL

Row | Compound | free indoxyl sulfate concentration [1] | non-toxic level of serum bilirubin concentration [2]
1 | bilirubin ditauride [Bil-DT] | 0.93 µg/mL | 
2 | C=CC1=C(C)/C(=C/c2[nH]c(Cc3[nH]c(/C=C4\NC(=O)C(C)=C4C=C)c(C)c3CCC(=O)O)c(CCC(=O)O)c2C)NC1=O [Bilirubin, bilirubin] |  | about 10 mg/dL

Reference: patent US8419943B2, “Method of removing protein-bound deleterious substances during extracorporeal renal replacement treatment” (Fresenius Medical Care Holdings, Inc., priority 2008, dated 2013)
